Drawing on ChEMBL document CHEMBL3784982, “Novel dihydropyrazole-chromen: Design and modulates hTERT inhibition proliferation of MGC-803” (Eur J Med Chem, 2016), this text covers IC50, Activity and inhibition for 4 compounds.

A short description of experiment [1]: Antiproliferative activity against human SGC7901 cells after 48 hrs by MTT assay. The format is functional, cell-based. As to conditions: SGC-7901, 48 h. For orientation: Formazan colour is commonly taken as a measure of viable cells.
The test system of another experiment is Bcap37. The experiment is described as follows: Antiproliferative activity against human Bcap37 cells after 48 hrs by MTT assay. As to conditions: Bcap37, 48 h. The format is functional, cell-based.
Experiment [2] in a line: Antiproliferative activity against human MGC803 cells after 48 hrs by MTT assay. Particulars: MGC-803, 48 h. It is filed as functional, cell-based.
Experiment [3] in a line: Antiproliferative activity against human PC3 cells after 48 hrs by MTT assay. The format is functional, cell-based. As to conditions: PC-3, 48 h.
A further experiment deals with MGC-803. Kind of experiment: Induction of cell cycle arrest in human MGC803 cells assessed as accumulation at G0/G1 phase at 1 uM after 48 hrs by propidium iodide staining-based flow cytometry (reference value: 32.7%). The format is functional.
In experiment [4] the target is Telomerase reverse transcriptase (Homo sapiens) (UniProt O14746). The experiment is described as follows: Inhibition of human TERT protein expression in human MGC803 cells at 1 uM after 48 hrs by Western blotting method. Particulars: MGC-803. It is filed as cell-based. For orientation: In western blotting, separated proteins are transferred to a membrane and probed.

Experiment [5] in a line: Cytotoxicity against human GES-1 cells after 48 hrs by MTT assay. The format is cell-based. As to conditions: GES1, 48 h.
Experiment [6] in a line: Cytotoxicity against human L02 cells after 48 hrs by MTT assay. As to conditions: L02, 48 h. The format is cell-based.
Experiment [7] deals with Telomerase reverse transcriptase (Homo sapiens) (UniProt O14746). The experiment is described as follows: Inhibition of human TERT-regulated Wnt/beta-catenin signalling in human MGC803 cells assessed as downregulation of beta-catenin protein expression after 48 hrs by Western blotting method. The format is cell-based. As to conditions: MGC-803.
For experiment [8] the target is unchanged. Kind of experiment: Inhibition of human TERT-regulated Wnt/beta-catenin signalling in human MGC803 cells assessed as downregulation of beta-catenin mRNA expression by RT-PCR method. It is filed as cell-based. As to conditions: MGC-803.
Experiment [9] has the same target. Kind of experiment: Inhibition of human TERT-regulated Wnt/beta-catenin signalling in human MGC803 cells assessed as downregulation of cyclin D1 protein expression after 48 hrs by Western blotting method. The format is cell-based. As to conditions: MGC-803.
For experiment [10] the target is unchanged. Kind of experiment: Inhibition of human TERT-regulated Wnt/beta-catenin signalling in human MGC803 cells assessed as downregulation of cyclin D1 mRNA expression by RT-PCR method. The format is cell-based. Particulars: MGC-803.
Experiment [11] shares this target. Kind of experiment: Inhibition of human TERT-regulated Wnt/beta-catenin signalling in human MGC803 cells assessed as downregulation of c-myc protein expression after 48 hrs by Western blotting method. The format is cell-based. As to conditions: MGC-803.
Experiment [12] shares this target. Kind of experiment: Inhibition of human TERT-regulated Wnt/beta-catenin signalling in human MGC803 cells assessed as downregulation of c-myc mRNA expression by RT-PCR method. It is filed as cell-based. Particulars: MGC-803.
For experiment [13] the target is unchanged. The experiment is described as follows: Inhibition of human TERT expressed in human MGC803 cells assessed as TERT-regulated Wnt/beta-catenin signalling by measuring decrease in beta-catenin protein expression after 48 hrs by Western blotting method. It is filed as cell-based. Particulars: MGC-803.
For experiment [14] the target is unchanged. The experiment is described as follows: Inhibition of human TERT expressed in human MGC803 cells assessed as TERT-regulated Wnt/beta-catenin signalling by measuring decrease in c-myc protein expression after 48 hrs by Western blotting method. The format is cell-based. As to conditions: MGC-803.
The target is the same in experiment [15]. The experiment is described as follows: Inhibition of human TERT expressed in human MGC803 cells assessed as TERT-regulated Wnt/beta-catenin signalling by measuring decrease in cyclin D1 protein expression after 48 hrs by Western blotting method. As to conditions: MGC-803. The format is cell-based.
Experiment [16] has the same target. Kind of experiment: Inhibition of human TERT expressed in human MGC803 cells assessed as TERT-regulated Wnt/beta-catenin signalling by measuring decrease in beta-catenin mRNA expression after 48 hrs by RT-PCR method. It is filed as cell-based. Particulars: MGC-803.
The target is the same in experiment [17]. Kind of experiment: Inhibition of human TERT expressed in human MGC803 cells assessed as TERT-regulated Wnt/beta-catenin signalling by measuring decrease in c-myc mRNA expression after 48 hrs by RT-PCR method. It is filed as cell-based. Particulars: MGC-803.
Experiment [18] shares this target. The experiment is described as follows: Inhibition of human TERT expressed in human MGC803 cells assessed as TERT-regulated Wnt/beta-catenin signalling by measuring decrease in cyclin D1 mRNA expression after 48 hrs by RT-PCR method. It is filed as cell-based. As to conditions: MGC-803.
Experiment [19] shares this target. The experiment is described as follows: Inhibition of human TERT protein expression in human MGC803 cells at […] after 48 hrs by Western blotting method. It is filed as cell-based. Particulars: MGC-803.
Experiment [20] has the same target. Kind of experiment: Inhibition of human TERT-regulated Wnt/beta-catenin signalling in human MGC803 cells assessed as decrease in beta-catenin protein expression at […] after 48 hrs by Western blotting method. The format is cell-based. As to conditions: MGC-803.
Experiment [21] has the same target. The experiment is described as follows: Inhibition of human TERT-regulated Wnt/beta-catenin signalling in human MGC803 cells assessed as decrease in cyclin D1 protein expression at […] after 48 hrs by Western blotting method. The format is cell-based. Particulars: MGC-803.
Experiment [22] shares this target. Kind of experiment: Inhibition of human TERT-regulated Wnt/beta-catenin signalling in human MGC803 cells assessed as decrease in c-myc protein expression at […] after 48 hrs by Western blotting method. The format is cell-based. Particulars: MGC-803.
Experiment [23] shares this target. The experiment is described as follows: Inhibition of human TERT-regulated Wnt/beta-catenin signalling in human MGC803 cells assessed as decrease in c-myc mRNA expression at […] after 48 hrs by RT-PCR method. It is filed as cell-based. As to conditions: MGC-803.
The target is the same in experiment [24]. The experiment is described as follows: Inhibition of human TERT-regulated Wnt/beta-catenin signalling in human MGC803 cells assessed as decrease in cyclin-D1 mRNA expression at […] after 48 hrs by RT-PCR method. The format is cell-based. As to conditions: MGC-803.
Experiment [25] shares this target. The experiment is described as follows: Inhibition of human TERT-regulated Wnt/beta-catenin signalling in human MGC803 cells assessed as decrease in beta-catenin mRNA expression at […] after 48 hrs by RT-PCR method. It is filed as cell-based. As to conditions: MGC-803.
The nature of experiment [26]: Inhibition of human TERT mRNA expression in human MGC803 cells at […] after 48 hrs by RT-PCR method. As to conditions: MGC-803. It is filed as functional, cell-based.
Experiment [27] in a line: Inhibition of human TERT mRNA expression in human MGC803 cells at 40 umol/L measured at 48 hrs by RT-PCR method. The format is functional, cell-based. Particulars: MGC-803.
Experiment [28] concerns the target Telomerase reverse transcriptase (Homo sapiens) (UniProt O14746). The experiment is described as follows: Inhibition of human TERT-regulated Wnt/beta-catenin signalling in human MGC803 cells assessed as decrease in beta-catenin mRNA expression at 40 umol/L measured at 48 hrs by RT-PCR method. The format is cell-based. Particulars: MGC-803.
Experiment [29] shares this target. Kind of experiment: Inhibition of human TERT-regulated Wnt/beta-catenin signalling in human MGC803 cells assessed as decrease in cyclin D1 mRNA expression at 40 umol/L measured at 48 hrs by RT-PCR method. As to conditions: MGC-803. The format is cell-based.
Experiment [30] has the same target. The experiment is described as follows: Inhibition of human TERT-regulated Wnt/beta-catenin signalling in human MGC803 cells assessed as decrease in c-myc mRNA expression at 40 umol/L measured at 48 hrs by RT-PCR method. It is filed as cell-based. As to conditions: MGC-803.
The target is the same in experiment [31]. The experiment is described as follows: Inhibition of human TERT-regulated Wnt/beta-catenin signalling in human MGC803 cells assessed as decrease in c-myc protein expression at 40 umol/L measured at 48 hrs by Western blotting method. It is filed as cell-based. Particulars: MGC-803.
For experiment [32] the target is unchanged. Kind of experiment: Inhibition of human TERT-regulated Wnt/beta-catenin signalling in human MGC803 cells assessed as decrease in cyclin D1 protein expression at 40 umol/L measured at 48 hrs by Western blotting method. It is filed as cell-based. As to conditions: MGC-803.
For experiment [33] the target is unchanged. The experiment is described as follows: Inhibition of human TERT-regulated Wnt/beta-catenin signalling in human MGC803 cells assessed as decrease in beta-catenin protein expression at 40 umol/L measured at 48 hrs by Western blotting method. As to conditions: MGC-803. It is filed as cell-based.
For experiment [34] the target is unchanged. Kind of experiment: Inhibition of human TERT protein expression in human MGC803 cells at 40 umol/L measured at 48 hrs by Western blotting method. The format is cell-based. As to conditions: MGC-803.

Activity calls are given as the source filed them. The calls are words filed in the database; no cut-off is given here.

Sequence of Telomerase reverse transcriptase (Homo sapiens) (O14746 whole entry): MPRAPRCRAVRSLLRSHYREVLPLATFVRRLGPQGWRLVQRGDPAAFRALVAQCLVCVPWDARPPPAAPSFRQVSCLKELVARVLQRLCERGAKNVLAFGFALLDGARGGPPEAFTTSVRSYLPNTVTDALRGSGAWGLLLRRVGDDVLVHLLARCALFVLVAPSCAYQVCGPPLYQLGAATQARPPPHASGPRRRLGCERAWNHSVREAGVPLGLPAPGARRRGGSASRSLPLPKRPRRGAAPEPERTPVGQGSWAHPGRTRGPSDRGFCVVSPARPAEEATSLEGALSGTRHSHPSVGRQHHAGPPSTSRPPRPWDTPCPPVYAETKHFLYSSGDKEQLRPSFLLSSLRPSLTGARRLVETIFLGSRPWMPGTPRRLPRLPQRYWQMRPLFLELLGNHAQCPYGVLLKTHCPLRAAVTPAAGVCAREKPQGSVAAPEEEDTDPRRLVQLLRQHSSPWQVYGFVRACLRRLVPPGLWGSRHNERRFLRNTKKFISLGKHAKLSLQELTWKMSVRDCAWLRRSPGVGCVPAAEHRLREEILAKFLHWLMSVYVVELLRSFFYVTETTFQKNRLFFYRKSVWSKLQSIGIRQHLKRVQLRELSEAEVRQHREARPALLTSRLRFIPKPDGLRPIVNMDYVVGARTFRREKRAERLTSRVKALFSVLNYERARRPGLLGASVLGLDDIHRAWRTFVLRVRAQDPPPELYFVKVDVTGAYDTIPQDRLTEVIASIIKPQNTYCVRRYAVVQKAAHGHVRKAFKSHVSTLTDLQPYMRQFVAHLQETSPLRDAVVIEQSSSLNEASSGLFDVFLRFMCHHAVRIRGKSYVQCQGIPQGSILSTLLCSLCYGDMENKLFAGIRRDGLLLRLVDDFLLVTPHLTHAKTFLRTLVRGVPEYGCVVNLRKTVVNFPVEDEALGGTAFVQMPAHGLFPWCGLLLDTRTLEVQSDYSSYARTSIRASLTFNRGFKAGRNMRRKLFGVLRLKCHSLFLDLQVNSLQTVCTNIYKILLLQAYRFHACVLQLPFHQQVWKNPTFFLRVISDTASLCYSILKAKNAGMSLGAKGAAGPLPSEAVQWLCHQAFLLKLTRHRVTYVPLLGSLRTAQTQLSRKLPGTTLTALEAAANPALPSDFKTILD

Consider `COc1cccc2c1C(=O)c1c(O)c3c(c(O)c1C2=O)C[C@@](O)(C(=O)CO)C[C@@H]3O[C@H]1C[C@H](N)[C@H](O)[C@H](C)O1` [DOXORUBICIN], for which the IC50 was found to be 0.8 µM in experiment [1], 1.19 µM in the experiment on Bcap37, 1.01 µM in [2] and 1.49 µM in experiment [3].

Turning to `O=C(CN1CCCCC1)N1N=C(c2ccccc2)CC1c1cc2ccccc2oc1=O` (stereo not given), the Activity with MGC-803 stood at 50.6%. In addition, the inhibition entry in [4], in experiment [7], in experiment [8], in [9], in experiment [10] and in experiment [11] was “Active” throughout. Also, the inhibition entry in experiment [12], in experiment [13], in [14], in experiment [15], in [16] and in [17] was “Active” throughout. The inhibition entry in [18] is “Active”. Further, the IC50 is 0.46 µM in experiment [1]; 5.3 µM in the experiment on Bcap37; 1.41 µM in [2]; 4.12 µM in experiment [3]; 2300 µM in experiment [5]; 2500 µM in [6].

As to `Cc1cn([C@H]2C[C@H](N=[N+]=[N-])[C@@H](CO)O2)c(=O)[nH]c1=O`, the inhibition entry in [19], in [20], in experiment [21], in experiment [22], in experiment [23] and in [24] was “Active” in each case. Besides, the inhibition entry in [25] and in experiment [26] was “Active” in each case.

With `CCc1ccc(-c2nc(CSCC(=O)NCCc3ccccc3)c(C)o2)cc1`, the inhibition result in [27], in experiment [28], in experiment [29], in experiment [30], in experiment [31] and in [32] was “Active” throughout. Also, the inhibition result in experiment [33] and in experiment [34] was “Active” throughout.

By IC50 is commonly meant the point on the concentration scale where inhibition reaches its midpoint.
